ChEMBL document CHEMBL5291721, “A preclinical secondary pharmacology resource illuminates target-adverse drug reaction associations of marketed drugs” (Nat Commun, 2023)

Molecular target: T1, Retinoic acid receptor beta (Homo sapiens, UniProt P10826)
T1 sequence (P10826 whole entry): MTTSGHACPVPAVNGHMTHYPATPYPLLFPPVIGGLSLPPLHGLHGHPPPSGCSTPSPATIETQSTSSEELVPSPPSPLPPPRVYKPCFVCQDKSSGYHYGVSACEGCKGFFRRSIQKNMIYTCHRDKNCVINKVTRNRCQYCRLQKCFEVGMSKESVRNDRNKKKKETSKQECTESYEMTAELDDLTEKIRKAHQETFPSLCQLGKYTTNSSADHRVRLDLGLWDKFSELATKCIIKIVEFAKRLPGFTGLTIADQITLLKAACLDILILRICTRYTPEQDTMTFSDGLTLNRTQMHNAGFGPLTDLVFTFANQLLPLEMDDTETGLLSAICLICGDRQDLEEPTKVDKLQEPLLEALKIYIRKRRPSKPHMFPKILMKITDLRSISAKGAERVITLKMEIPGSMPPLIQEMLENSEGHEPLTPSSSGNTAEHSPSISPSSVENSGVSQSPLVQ
Type: functional, cell-based
Also: assay procedure not described here.

CC(C)c1c(C(=O)Nc2ccccc2)c(-c2ccccc2)c(-c2ccc(F)cc2)n1CC[C@@H](O)C[C@@H](O)CC(=O)O [ATORVASTATIN]
AC50: > 30 µM
